# Data published in patent EP4752152A1, “STEROID COMPOUND, AND PREPARATION METHOD THEREFOR AND USE THEREOF” (Cholesgen (Shanghai) Co.Ltd., priority 2023, dated 2025).
# Like-named read-outs stand apart in the source and are kept apart here.
# Assays:
# SREBP pathway = test: SREBP luciferase reporter gene system (SRE-luciferase assay); assay type: cell-based, human; settings: Huh-7/SRE-luc cells, sterol-deficient medium, 0.01-10 µM
# Outline: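 Huh-7 cells stably carrying LDLR promoter-luciferase plus GFP were treated 16 h in sterol-deficient medium (5% lipoprotein-deficient serum, 2 µM lovastatin, 10 µM mevalonic acid) at 0.01–10 µM. Luciferase/GFP ratio measured as pathway activity; inhibition versus DMSO fitted to a four-parameter model for IC50.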
# [1] = test system: Fatty Acid Synthase (FASN) gene; test: Inhibition of FASN gene expression (qPCR) in Huh-7 cells; assay type: cell-based, human; settings: Homo sapiens, read-out: FASN IC50
# Procedure: Huh-7 cells (purchased from ATCC) were cultured in DMEM medium (containing 10% fetal bovine serum LONSERA S711-001S) at 37°C in a 5% CO2 incubator. After 24 hours, the original medium was aspirated and replaced with DMEM starvation medium (containing 5% lipoprotein deficient serum (LPDS), 2 µM lovastatin, and 10 µM mevalonate). The control group was treated with dimethyl sulfoxide (DMSO), while the compound treatment groups were treated with different concentrations of compounds. The highest concentration of the compound was 3000 nM, with 3-fold dilutions, totaling 5 concentrations. The cells were cultured for 16 hours. Cell lysis was performed, followed by reverse transcription from cells to cDNA, and qPCR was performed to detect the expression of the SREBP target gene Fatty Acid Synthase (FASN) gene (FASN gene forward primer sequence: 5'-[…]-3', reverse primer sequence: 5'-[…]-3'). The IC50 was calculated. The test data for each test compound were analyzed using Prism software (with the DMSO-treated group as the reference to calculate the compound inhibition rate, fitted using the Prism log(inhibitor) vs. responseVariable slope (four-parameter) model, calculation formula: Y = Bottom + (Top - Bottom)/(1 + 10^((LogIC50 - X) × HillSlope))), to obtain the IC50 parameters of the compounds. Table 4: Inhibition results of FASN gene expression by compounds from some examples
# [2] = Huh-7, 16 h, Huh-7 cells, starvation medium, 16 hours, qPCR, class symbols
Structure (SMILES),"IC50 (SREBP pathway; Homo sapiens, Huh-7, 16 h) [µM]","IC50 [1, 2] [nM]",also measured
"COc1cc(F)cc(F)c1C(O)CCC[C@@H](C)[C@H]1CC[C@H]2C3CC[C@H]4[C@@H](O)[C@@H](O)CC[C@]4(C)[C@H]3CC[C@]12C (stereo in doubt) [Compound 104, (1R,3aS,5aR,6R,7S,9aR,9bS,11aR)-1-[(2R)-6-(2,4-Difluoro-6-methoxyphenyl)-6-hydroxyhexan-2-yl]-9a,11a-dimethylhexadecahydro-1H-cyclopenta[1,2-a]phenanthrene-6,7-diol]",0.25,200 to 500,
"C[C@H](CCCC(O)c1nnnn1C)[C@H]1CC[C@H]2[C@H]3[C@H](CC[C@]12C)[C@@]1(C)CC[C@H](O)C[C@@H]1CC3(F)F (stereo partly drawn) [Compound 373, (1R,3aS,3bR,5aR,7S,9aS,9bS,11aR)-4,4-difluoro-1-[(2R)-6-hydroxy-6-(1-methyl-1,2,3,4-tetrazol-5-yl)hexan-2-yl]-9a,11a-dimethylhexadecahydro-1H-cyclopenta[1,2-a]phenanthren-7-ol]",0.078,< 200,
"C[C@H](CCCC(O)c1nc2cccc(Br)c2n1C)[C@H]1CC[C@H]2[C@H]3[C@H](CC[C@]12C)[C@@]1(C)CC[C@H](O)[C@H](O)[C@@H]1CC3(F)F (stereo partly drawn) [Compound 212, (1R,3aS,3bS,5aR,6R,7 S,9aR,9bS,11aR)-1-[(2R)-6-(7-Bromo-1-methylbenzo[d]imidazol-2-yl)-6-hydroxyhexan-2-yl]-4,4-difluoro-9a,11a-dimethylhexadecahydro-1H-cyclopenta[1,2-a]phenanthrene-6,7-diol]",0.08,200 to 500,
"COc1cccc(F)c1C(CCC[C@@H](C)[C@H]1CC[C@H]2[C@H]3[C@H](CC[C@]12C)[C@@]1(C)CC[C@H](O)[C@H](O)[C@@H]1CC3(F)F)=NO (single isomer, unassigned) [Compound 210, [(1E,5R)-5-[(1R,3aS,3bS,5aR,6R,7S,9aR,9bS,11aR)-4,4-difluoro-6,7-dihydroxy-9a,11a-dimethylhexadecahydro-1H-cyclopenta[1,2-a]phenanthren-1-yl]-1-(2-fluoro-6-methoxyphenyl)hexylidene]hydroxylamine or [(1Z,5R)-5-[(1R,3aS,3bS,5aR,6R,7S,9aS,9bS,11aR)-4,4-difluoro-6,7-dihydroxy-9a,9b,11a-trimethylhexadecahydro-1H-cyclopenta[1,2-a]phenanthren-1-yl]-1-(2-fluoro-6-methoxyphenyl)hexylidene]hydroxylamine]",,,"IC50 (SREBP pathway; 16 hours): 0.017 µM; IC50 ([1]; Huh-7, 16 h): < 200 nM"
C[C@H](CCCC(O)c1ccc(F)nc1OC1CC1)[C@H]1CC[C@H]2[C@H]3[C@H](CC[C@]12C)[C@@]1(C)CC[C@H](O)C[C@@H]1CC3(F)F (some centres unmarked) [Compound 335],,,"IC50 (SREBP pathway; Homo sapiens, 16 hours): 0.045 µM; IC50 ([1]; Huh-7 cells, starvation medium, 16 hours, qPCR, class symbols): < 200 nM"
"CCOc1nc(F)ccc1[C@@H](O)CCC[C@@H](C)[C@H]1CC[C@H]2[C@H]3[C@H](CC[C@]12C)[C@@]1(C)CC[C@H](O)[C@H](O)[C@@H]1CC3(F)F (single isomer, unassigned) [Compound 289]",0.342,< 200,
"C[C@H](CCCC(O)c1ccc(F)nc1F)[C@H]1CC[C@H]2[C@H]3[C@H](CC[C@]12C)[C@@]1(C)CC[C@H](O)[C@H](O)[C@@H]1CC3(F)F (single isomer, unassigned) [Compound 227, (1R,3aS,3bS,5aR,6R,7S,9aR,9bS,11aR)-1-[(2R,6R)-6-(2,6-difluoropyridin-3-yl)-6-hydroxyhexan-2-yl]-4,4-difluoro-9a,11a-dimethylhexadecahydro-1H-cyclopenta[1,2-a]phenanthrene-6,7-diol or (1R,3aS,3bS,5aR,6R,7S,9aR,9bS,11aR)-1-[(2R,6S)-6-(2,6-difluoropyridin-3-yl)-6-hydroxyhexan-2-yl]-4,4-difluoro-9a,11a-dimethylhexadecahydro-1H-cyclopenta[1,2-a]phenanthrene-6,7-diol]",,200 to 500,IC50 (SREBP pathway; 16 hours): 0.014 µM
"C[C@H](CCC[C@@H](O)c1c(F)ccnc1F)[C@H]1CC[C@H]2[C@H]3[C@H](CC[C@]12C)[C@@]1(C)CC[C@H](O)[C@H](O)[C@@H]1CC3(F)F (single isomer, unassigned) [Compound 232]",0.151,200 to 500,
"COc1nc(F)ccc1[C@H](O)CCC[C@@H](C)[C@H]1CC[C@H]2[C@H]3[C@H](CC[C@]12C)[C@@]1(C)CC[C@H](O)C[C@@H]1CC3(F)F [Compound 313, (1R,3aS,3bR,5aR,7S,9aS,9bS,11aR)-4,4-difluoro-1-[(2R,6R)-6-(6-fluoro-2-methoxypyridin-3-yl)-6-hydroxyhexan-2-yl]-9a,11a-dimethylhexadecahydro-1H-cyclopenta[1,2-a]phenanthren-7-ol]",0.076,500 to 900,
"COc1cc(F)ccc1C(O)CCC[C@@H](C)[C@H]1CC[C@H]2[C@H]3[C@H](CC[C@]12C)[C@@]1(C)CC[C@H](O)C(=O)[C@@H]1CC3(F)F (stereo partly drawn) [Compound 184, (1R,3aS,3bS,5aR,7S,9aR,9bS,11aR)-4,4-difluoro-1-[(2R)-6-(4-fluoro-2-methoxyphenyl)-6-hydroxyhexan-2-yl]-7-hydroxy-9a,11a-dimethylhexadecahydro-1H-cyclopenta[1,2-a]phenanthren-6-one]",0.031,< 200,
"C[C@H](CCCC(O)c1cccc2c1OC(F)(F)O2)[C@H]1CC[C@H]2[C@H]3[C@H](CC[C@]12C)[C@@]1(C)CC[C@H](O)[C@H](O)[C@@H]1CC3(F)F (single isomer, unassigned) [Compound 194, (1R,3aS,3bS,5aR,6R,7S,9aR,9bS,11aR)-1-[(2R,6S)-6-(2,2-difluorobenzo[d][1,3]dioxol-4-yl)-6-hydroxyhexan-2-yl]-4,4-difluoro-9a,11a-dimethylhexadecahydro-1H-cyclopenta[1,2-a]phenanthrene-6,7-diol or (1R,3aS,3bS,5aR,6R,7S,9aR,9bS,11aR)-1-[(2R,6R)-6-(2,2-difluorobenzo[d][1,3]dioxol-4-yl)-6-hydroxyhexan-2-yl]-4,4-difluoro-9a,11a-dimethylhexadecahydro-1H-cyclopenta[1,2-a]phenanthrene-6,7-diol]",0.102,200 to 500,
"COc1cc(F)nc(F)c1[C@H](O)CCC[C@@H](C)[C@H]1CC[C@H]2[C@H]3[C@H](CC[C@]12C)[C@@]1(C)CC[C@H](O)[C@H](O)[C@@H]1CC3(F)F (single isomer, unassigned) [Compound 262]",0.017,< 200,
"C[C@H](CCCC(O)c1ccccc1F)[C@H]1CC[C@H]2C3=C(F)CC4C[C@@H](O)CC[C@]4(C)[C@H]3CC[C@]12C (stereo partly drawn) [Compound 75, (1R,3aR,7S,9aS,9bR,11aR)-4-fluoro-1-[(2R)-6-(2-fluorophenyl)-6-hydroxyhexan-2-yl]-9a,11a-dimethyl-2,3,3a,5,5a,6,7,8,9,9a,9b,10,11,11a-tetradecahydro-1H-cyclopenta[1,2-a]phenanthren-7-ol]",0.37,< 200,
"C[C@H](CCCC(O)c1cccc(OC(F)(F)F)c1)[C@H]1CC[C@H]2[C@H]3[C@H](CC[C@]12C)[C@@]1(C)CC[C@H](O)[C@H](O)[C@@H]1CC3(F)F (single isomer, unassigned) [Compound 191, (1R,3aS,3bS,5aR,6R,7S,9aR,9bS,11aR)-4,4-difluoro-1-[(2R,6R)-6-hydroxy-6-{3-[(trifluoromethyl)oxy]phenyl}hexan-2-yl]-9a,11a-dimethylhexadecahydro-1H-cyclopenta[1,2-a]phenanthrene-6,7-diol or (1R,3aS,3bS,5aR,6R,7S,9aR,9bS,11aR)-4,4-difluoro-1-[(2R,6S)-6-hydroxy-6-(2-methoxypyridin-3-yl)hexan-2-yl]-9a,11a-dimethylhexadecahydro-1H-cyclopenta[1,2-a]phenanthrene-6,7-diol]",,200 to 500,IC50 (SREBP pathway; 16 hours): 0.246 µM
"COc1nc(F)ccc1C(O)CCC[C@@H](C)[C@H]1CC[C@H]2C3=C(F)C[C@H]4[C@@H](O)[C@@H](O)CC[C@]4(C)[C@H]3CC[C@]12C (stereo partly drawn) [Compound 107, (1R,3aR,5aR,6R,7S,9aR,9bR,11aR)-4-fluoro-1-[(2R)-6-(6-fluoro-2-methoxypyridin-3-yl)-6-hydroxyhexan-2-yl]-9a,11a-dimethyl-2,3,3a,5,5a,6,7,8,9,9a,9b,10,11,11a-tetradecahydro-1H-cyclopenta[1,2-a]phenanthrene-6,7-diol]",0.0777,200 to 500,
"COc1cccc(F)c1[C@H](O)CC[C@@H](C)[C@H]1CC[C@H]2[C@H]3[C@H](CC[C@]12C)[C@@]1(C)CC[C@H](O)[C@H](O)[C@@H]1CC3(F)F [Compound 346, (1R,3aS,3bS,5aR,6R,7S,9aR,9bS,11aR)-4,4-difluoro-1-[(2R,5R)-5-(2-fluoro-6-methoxyphenyl)-5-hydroxypentan-2-yl]-9a,11a-dimethylhexadecahydro-1H-cyclopenta[1,2-a]phenanthrene-6,7-diol]",0.056,< 200,
